One assay has as its target T1, RORγ-LBD (Homo sapiens, UniProt P51449).
T1 construct: made in house; host or cells: SF9 cells (baculovirus)
T1 sequence (P51449 269-508 limits assumed): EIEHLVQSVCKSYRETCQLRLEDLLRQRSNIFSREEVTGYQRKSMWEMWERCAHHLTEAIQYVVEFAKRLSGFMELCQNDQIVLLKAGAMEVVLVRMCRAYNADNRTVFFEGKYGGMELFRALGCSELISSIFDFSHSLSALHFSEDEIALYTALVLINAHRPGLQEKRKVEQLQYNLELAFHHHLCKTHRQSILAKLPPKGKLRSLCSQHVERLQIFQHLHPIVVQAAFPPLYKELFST
The experiment in a line: RORγ-Ligand Binding Domain (LBD) TR-FRET Assay.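 As to TR-FRET Assay Max Response: 665/615 nm ratio relative to signal without ursolic acid or compound set at 100.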 Type of assay: biochemical. In short, it runs like this: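 SF9 lysate containing His-RORγ-LBD, ~3 nM final; coactivator peptide biotin-SRC1 LXXLL, 200 nM final; ursolic acid 2 μM final; DMSO 1% final; Tris pH 7.0 buffer with KCl, EDTA, DTT, BSA. TR-FRET format.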
(In general: In TR-FRET formats the signal depends on donor and acceptor labels being close together.)

For a further assay, the target named is T2, Gal4-RORγ-LBD (Homo sapiens, UniProt P51449).
T2 construct: expressed in transfected cells; host or cells: HEK-293 cells (pcDNA3.1neo plasmid)
T2 sequence (P51449 269-508 limits assumed): T1 sequence (P51449 269-508 limits assumed)
Nature of the assay: Gal4-RORγ Luciferase Reporter Assay in HEK-293T Cells. Type of assay: cell-based. The conditions noted are these: HEK-293 cells. In outline: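 In transfected HEK-293 cells (Gal4-RORγ-LBD, Gal4-luciferase), test agents with 2 μM ursolic acid were incubated overnight at 37 °C before luminescent detection. Values are relative to the ursolic-acid-free, compound-free signal (100).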

[1] abbreviates: luciferase reporter, with 2 μM ursolic acid.

pEC50: −log10 of the molar value.

In general, pEC50 refers to −log10 of the EC50, conventionally taken in molar units. Read a high pEC50 as a small EC50. On to `O=C(O)CC[C@H]1CN(S(=O)(=O)c2cccc(C(F)(F)F)c2)c2cc(-c3cc(Cl)cc(F)c3F)ccc2O1` [Compound 4AQ, (S)-3-(6-(5-chloro-2,3-difluorophenyl)-4-((3-(trifluoromethyl)phenyl)sul-fonyl)-3,4-dihydro-2H-benzo[b][1,4]oxazin-2-yl)propanoic acid], for which, on RORγ-LBD, the pEC50 was > 6.30 and the “TR-FRET Assay Max Response” value is listed as “**** (The symbol “****” indicates a value greater than 200)”. Further, on Gal4-RORγ-LBD (setting [1]), the pEC50 is > 6.30 and the “Gal4-RORγ Assay Max Response” value is “** (The symbol “**” indicates a value in the range of greater than 90 to 150)”.

With `COc1cc(S(=O)(=O)N2C[C@H](CNC(=O)[C@@](C)(O)C(F)(F)F)Oc3ccc(-c4cccc(C(F)(F)F)n4)cc32)ccc1F` [Compound 30CC, (R)-3,3,3-trifluoro-N-(((S)-4-((4-fluoro-3-methoxyphenyl)-sulfonyl)-6-(6-(trifluoromethyl)-pyridin-2-yl)-3,4-dihydro-2H-benzo[b][1,4]oxazin-2-yl)methyl)-2-hydroxy-2-methylpropanamide], on RORγ-LBD, the pEC50 is > 6.30 and the “TR-FRET Assay Max Response” value is recorded as “*** (The symbol “***” indicates a value in the range of greater than 150 to 200)”. In addition, at Gal4-RORγ-LBD (2 μM ursolic acid), the pEC50 was > 6.30 and the “Gal4-RORγ Assay Max Response” value is given as “** (The symbol “**” indicates a value in the range of greater than 90 to 150)”.

`CC(C)(C[C@H]1CN(S(=O)(=O)c2cccc(C(F)(F)F)c2)c2cc(-c3cccc(C(F)F)c3)ccc2O1)C(=O)O` [Compound 32AL, (S)-3-(6-(3-(difluoromethyl)-phenyl)-4-((3-(trifluoromethyl)-phenyl)sulfonyl)-3,4-dihydro-2H-benzo[b][1,4]oxazin-2-yl)-2,2-dimethylpropanoic acid]: on RORγ-LBD, the pEC50 is > 6.30 and the “TR-FRET Assay Max Response” value is listed as “** (The symbol “**” indicates a value in the range of greater than 90 to 150)”. Further, on Gal4-RORγ-LBD (2 μM ursolic acid), the pEC50 is > 6.30 and the “Gal4-RORγ Assay Max Response” value is listed as “** (The symbol “**” indicates a value in the range of greater than 90 to 150)”.

`O=C(NC[C@H]1CN(S(=O)(=O)c2cccc(C(F)(F)F)c2)c2cc(-c3cc(F)ccc3F)ccc2O1)C1(F)CC1` [Compound 30AR, (S)-N-((6-(2,5-difluorophenyl)-4-((3-(trifluoromethyl)phenyl)-sulfonyl)-3,4-dihydro-2H-benzo[b][1,4]oxazin-2-yl)-methyl)-1-fluorocyclopropane-1-carboxamide]: at RORγ-LBD, the pEC50 was > 6.30 and the “TR-FRET Assay Max Response” value is reported as “**** (The symbol “****” indicates a value greater than 200)”. At Gal4-RORγ-LBD (setting [1]), the pEC50 was > 6.30 and the “Gal4-RORγ Assay Max Response” value is “* (The symbol “*” indicates a value in the range of 25 to 90)”.

`O=C(NC[C@H]1CN(S(=O)(=O)c2cccc(C(F)(F)F)c2)c2cc(-c3cc(F)ccc3F)ccc2O1)C1CC1` [Compound 30Y, (S)-N-((6-(2,5-difluorophenyl)-4-((3-(trifluoromethyl)phenyl)-sulfonyl)-3,4-dihydro-2H-benzo[b][1,4]oxazin-2-yl)-methyl)cyclopropane-carboxamide]: on RORγ-LBD, the pEC50 is > 6.30 and the “TR-FRET Assay Max Response” value is “**** (The symbol “****” indicates a value greater than 200)”. Also, at Gal4-RORγ-LBD (setting [1]), the pEC50 is > 6.30 and the “Gal4-RORγ Assay Max Response” value is reported as “** (The symbol “**” indicates a value in the range of greater than 90 to 150)”.

Consider `CC(C)c1ccccc1-c1ccc2c(c1)N(S(=O)(=O)c1cccc(C(F)(F)F)c1)C[C@H](CCC(=O)O)O2` [Compound 2AJ, (S)-3-(6-(2-isopropylphenyl)-4-((3-(trifluoromethyl)phenyl)-sulfonyl)-3,4-dihydro-2H-benzo[b][1,4]oxazin-2-yl)propanoic acid], for which, on RORγ-LBD, the pEC50 is > 6.30 and the “TR-FRET Assay Max Response” value was “**** (The symbol “****” indicates a value greater than 200)”. Further, on Gal4-RORγ-LBD (setting [1]), the pEC50 is > 6.30 and the “Gal4-RORγ Assay Max Response” value is recorded as “** (The symbol “**” indicates a value in the range of greater than 90 to 150)”.

In the case of `O=C(O)CC[C@H]1CN(S(=O)(=O)c2cccc(C(F)(F)F)c2)c2cc(-c3cc(C(F)(F)F)ccn3)ccc2O1` [Compound 3, (S)-3-(4-((3-(trifluoromethyl)phenyl)sulfonyl)-6-(4-(trifluoromethyl)pyridin-2-yl)-3,4-dihydro-2H-benzo[b][1,4]oxazin-2-yl)propanoic acid], at RORγ-LBD, the pEC50 was > 6.30 and the “TR-FRET Assay Max Response” value is “*** (The symbol “***” indicates a value in the range of greater than 150 to 200)”. For the same compound, at Gal4-RORγ-LBD (setting [1]), the negative-log EC50 (pEC50) was 5.30 to 6.30 and the “Gal4-RORγ Assay Max Response” value is “*** (The symbol “***” indicates a value in the range of greater than 150 to 200)”.

With `CC(C)(CC[C@H]1CN(S(=O)(=O)c2cccc(C(F)(F)F)c2)c2cc(-c3cccc(C(F)(F)F)n3)ccc2O1)C(=O)O` [Compound 32P, (S)-2,2-dimethyl-4-(4-((3-(trifluoromethyl)phenyl)sulfonyl)-6-(6-(trifluoromethyl)pyridin-2-yl)-3,4-dihydro-2H-benzo[b][1,4]oxazin-2-yl)butanoic acid], at RORγ-LBD, the pEC50 was > 6.30 and the “TR-FRET Assay Max Response” value is given as “*** (The symbol “***” indicates a value in the range of greater than 150 to 200)”. Further, at Gal4-RORγ-LBD (setting [1]), the pEC50 was > 6.30 and the “Gal4-RORγ Assay Max Response” value was “** (The symbol “**” indicates a value in the range of greater than 90 to 150)”.

As for `CC(C)(O)C(=O)NC[C@H]1CN(S(=O)(=O)c2cccc(OC(F)F)c2)c2cc(-c3cc(F)ccc3F)ccc2O1` [Compound 30R, (S)-N-((4-((3-(difluoromethoxy)-phenyl)sulfonyl)-6-(2,5-difluorophenyl)-3,4-dihydro-2H-benzo[b][1,4]oxazin-2-yl)methyl)-2-hydroxy-2-methylpropanamide], at RORγ-LBD, the negative logarithm of the EC50 (pEC50) is > 6.30 and the “TR-FRET Assay Max Response” value is “**** (The symbol “****” indicates a value greater than 200)”. In addition, at Gal4-RORγ-LBD (setting [1]), the pEC50 was > 6.30 and the “Gal4-RORγ Assay Max Response” value is reported as “** (The symbol “**” indicates a value in the range of greater than 90 to 150)”.

`CCOc1cccc(-c2ccc3c(c2)N(S(=O)(=O)c2cccc(C(F)(F)F)c2)C[C@H](CCC(=O)O)O3)c1F` [Compound 4AA, (S)-3-(6-(3-ethoxy-2-fluorophenyl)-4-((3-(trifluoromethyl)phenyl)sulfonyl)-3,4-dihydro-2H-benzo[b][1,4]oxazin-2-yl)propanoic acid]: on RORγ-LBD, the pEC50 is > 6.30 and the “TR-FRET Assay Max Response” value was “**** (The symbol “****” indicates a value greater than 200)”. For the same compound, at Gal4-RORγ-LBD (setting [1]), the pEC50 is > 6.30 and the “Gal4-RORγ Assay Max Response” value is recorded as “** (The symbol “**” indicates a value in the range of greater than 90 to 150)”.

For `Cc1ccccc1-c1ccc2c(c1)N(S(=O)(=O)c1cccc(C(F)(F)F)c1)C[C@H](CCC(=O)O)O2` [Compound 2P, (S)-3-(6-(o-tolyl)-4-((3-(trifluoromethyl)phenyl)-sulfonyl)-3,4-dihydro-2H-benzo[b][1,4]oxazin-2-yl)propanoic acid], on RORγ-LBD, the pEC50 is > 6.30 and the “TR-FRET Assay Max Response” value is listed as “*** (The symbol “***” indicates a value in the range of greater than 150 to 200)”. Moreover, on Gal4-RORγ-LBD (setting [1]), the pEC50 was > 6.30 and the “Gal4-RORγ Assay Max Response” value was “*** (The symbol “***” indicates a value in the range of greater than 150 to 200)”.

As to `CC(C)(C(=O)NC[C@H]1CN(S(=O)(=O)c2cccc(C(F)(F)F)c2)c2cc(-c3cccc(C(F)(F)F)n3)ccc2O1)C(F)(F)F` [Compound 30BY, (S)-3,3,3-trifluoro-2,2-dimethyl-N-((4-((3-(trifluoromethyl)-phenyl)sulfonyl)-6-(6-(trifluoro-methyl)pyridin-2-yl)-3,4-dihydro-2H-benzo[b][1,4]-oxazin-2-yl)methyl)propanamide], at RORγ-LBD, the pEC50 was 5.30 to 6.30 and the “TR-FRET Assay Max Response” value is listed as “*** (The symbol “***” indicates a value in the range of greater than 150 to 200)”. Further, at Gal4-RORγ-LBD (2 μM ursolic acid), the pEC50 was 5.30 to 6.30 and the “Gal4-RORγ Assay Max Response” value was “* (The symbol “*” indicates a value in the range of 25 to 90)”.

Turning to `CS(=O)(=O)c1ccccc1-c1ccc2c(c1)N(S(=O)(=O)c1cccc(C(F)(F)F)c1)C[C@H](CCC(=O)O)O2` [Compound 2BI, (S)-3-(6-(2-(methylsulfonyl)-phenyl)-4-((3-(trifluoromethyl)-phenyl)sulfonyl)-3,4-dihydro-2H-benzo[b][1,4]oxazin-2-yl)propanoic acid], on RORγ-LBD, the pEC50 was 5.30 to 6.30 and the “TR-FRET Assay Max Response” value is on record as “*** (The symbol “***” indicates a value in the range of greater than 150 to 200)”. At Gal4-RORγ-LBD (setting [1]), the pEC50 was 5.30 to 6.30 and the “Gal4-RORγ Assay Max Response” value was “** (The symbol “**” indicates a value in the range of greater than 90 to 150)”.

As for `CC(C)(C[C@@H]1CN(S(=O)(=O)c2cccc(C(F)(F)F)c2)c2cc(-c3cc(F)ccc3F)ccc2O1)C(=O)O` [Compound 52, (R)-3-(6-(2,5-difluorophenyl)-4-((3-(trifluoromethyl)phenyl)sulfonyl)-3,4-dihydro-2H-benzo[b][1,4]oxazin-2-yl)-2,2-dimethylpropanoic Acid], on RORγ-LBD, the pEC50 was > 6.30 and the “TR-FRET Assay Max Response” value was “** (The symbol “**” indicates a value in the range of greater than 90 to 150)”. Also, on Gal4-RORγ-LBD (2 μM ursolic acid), the pEC50 is 5.30 to 6.30 and the “Gal4-RORγ Assay Max Response” value was “* (The symbol “*” indicates a value in the range of 25 to 90)”.

The values are drawn from patent US10611740B2, “Aryl dihydro-2H-benzo[b][1,4]oxazine sulfonamide and related compounds for use as agonists of RORγ and the treatment of disease” (Lycera Corporation, priority 2015, dated 2020).
